From paper PMC7668297 (Journal of medicinal chemistry, 2020)
Entries after “also recorded” stand apart in the source; their conditions may differ.

What was measured:
[1] = tested on: HeLa cells; assay: cells; conditions: Homo sapiens, 72 h, read-out: Cell proliferation IC50 ± SD
[2] = tested on: MCF7 cells; assay: cells; conditions: Homo sapiens, MCF7, 72 h, read-out: Cell proliferation IC50 ± SD
[3] = tested on: A549 cells; assay: cells; conditions: Homo sapiens, A549, 72 h, read-out: Cell proliferation IC50 ± SD
[4] = tested on: A375 cells; assay: cells; conditions: Homo sapiens, A-375, 72 h, read-out: Cell proliferation IC50 ± SD
[5] = tested on: G-361 cells; assay: cells; conditions: Homo sapiens, G-361, 72 h, read-out: Cell proliferation IC50 ± SD
[6] = biological target: hERG channel (Homo sapiens, UniProt Q12809); assay: Off-target safety profiling, hERG channel; conditions: tested at 2 µM
[7] = biological target: T1, human topoIIα (Homo sapiens, UniProt P11388); assay: ATP hydrolysis; type: biochemical; conditions: 0-25 µM compound
[8] = biological target: T1, human topoIIα; assay: DNA relaxation catalyzed by human topoIIα; type: biochemical; conditions: ratio of DNA relaxation IC50 values
[9] = tested on: H2AX phosphorylation in HeLa cells; assay: Immunodetection of H2AX phosphorylation; type: cell-based, human; conditions: 90 minutes, at IC50 concentration
[10] = tested on: set of 47 proteins; assay: Off-target safety profiling; conditions: tested at 2 µM
[11] = biological target: T1, human topoIIα; assay: DNA cleavage assay; type: biochemical; conditions: 0-200 µM compound
[12] = biological target: human topoIIβ (Homo sapiens, UniProt Q02880); assay: DNA relaxation catalyzed by human topoIIβ; type: biochemical
[13] = mouse, in vivo, ip, 10 mg/kg
[14] = tested on: relaxed pBR322 DNA; assay: DNA intercalation; type: binding; conditions: 0-25 µM compound

**Q.** What does the source list for `NC1CCc2nc(-c3ccncc3)nc(Nc3cccc(F)c3)c2C1` (stereo not shown) [Compound 1, N4-(3-fluorophenyl)-2-(4-pyridyl)-5,6,7,8-tetrahydroquinazoline-4,6-diamine]?
**A.** IC50 [1]: 17 ± 1.9 µM; IC50 [2]: 13.9 ± 2.3 µM; IC50 [3]: 19.4 ± 1.8 µM; IC50 [4]: 9.9 ± 0.1 µM; IC50 [5]: 1.4 ± 0.4 µM

**Q.** Which IC50 [1] does the source give for `N[C@H]1CCc2nc(-c3ccncc3)nc(Nc3cccc(F)c3)c2C1` [Compound 3, (6R)-N4-(3-fluorophenyl)-2-(4-pyridyl)-5,6,7,8-tetrahydroquinazoline-4,6-diamine] here?
**A.** 17.1 ± 3.2 µM

**Q.** What about the IC50 [2] of the same molecule?
**A.** 14.2 ± 2.5 µM

**Q.** What about the IC50 [3] of the same molecule?
**A.** 23.3 ± 2.3 µM

**Q.** And the IC50 [4]?
**A.** 10.7 ± 0.1 µM

**Q.** With `N[C@@H]1CCc2nc(-c3ccncc3)nc(Nc3cccc(F)c3)c2C1` [Compound 4, (6S)-N4-(3-fluorophenyl)-2-(4-pyridyl)-5,6,7,8-tetrahydroquinazoline-4,6-diamine] as the molecule, how does the IC50 [1] read?
**A.** 21.8 ± 4.6 µM

**Q.** What about the IC50 [2] of the same molecule?
**A.** 16.2 ± 2.6 µM

**Q.** And the IC50 [3]?
**A.** 17.8 ± 0.6 µM

**Q.** What about the IC50 [4] of the same molecule?
**A.** 10.8 ± 0.1 µM

**Q.** And the IC50 [5]?
**A.** 1.8 ± 0.6 µM

**Q.** Which IC50 [1] does the source give for `NC1CCc2nc(-c3ccncc3)nc(Nc3ccc(F)cc3)c2C1` (stereo not shown) [Compound 10, N4-(4-fluorophenyl)-2-(4-pyridyl)-5,6,7,8-tetrahydroquinazoline-4,6-diamine] here?
**A.** 20.8 ± 4.5 µM

**Q.** And the IC50 [2]?
**A.** 16 ± 0.5 µM

**Q.** What about the IC50 [3] of the same molecule?
**A.** 22.9 ± 6.5 µM

**Q.** What about the IC50 [4] of the same molecule?
**A.** 12.3 ± 1.8 µM

**Q.** What about the IC50 [5] of the same molecule?
**A.** 3 ± 0.7 µM

**Q.** For `COc1cccc(Nc2nc(-c3ccncc3)nc3c2CC(N)CC3)c1` (stereo not shown) [Compound 11, N4-(3-methoxyphenyl)-2-(4-pyridyl)-5,6,7,8-tetrahydroquinazoline-4,6-diamine], which IC50 [1] is on record?
**A.** 17.2 ± 2.6 µM

**Q.** And the IC50 [2]?
**A.** 15.8 ± 1.4 µM

**Q.** And the IC50 [3]?
**A.** 18 ± 0.1 µM

**Q.** What about the IC50 [4] of the same molecule?
**A.** 15.1 ± 4.8 µM

**Q.** What about the IC50 [5] of the same molecule?
**A.** 6.6 ± 3.1 µM

**Q.** For `CN(C)c1ccc(Nc2nc(-c3ccncc3)nc3c2CC(N)CC3)cc1` (stereo not shown) [Compound 14, N4-[4-(dimethylamino)phenyl]-2-(4-pyridyl)-5,6,7,8-tetrahydroquinazoline-4,6-diamine], which “activity vs the hERG channel” value [6] is on record?
**A.** no noteworthy activity

**Q.** What about the “inhibition of topoIIα-catalyzed ATP hydrolysis” value ([7]; in the absence of DNA) of the same molecule?
**A.** none

**Q.** What about the “inhibition of topoIIα-catalyzed ATP hydrolysis” value ([7]; in the presence of DNA) of the same molecule?
**A.** little ability to inhibit

**Q.** What about the IC50 [1] of the same molecule?
**A.** 38.2 ± 9.1 µM

**Q.** What about the IC50 [2] of the same molecule?
**A.** 15.8 ± 1.3 µM

**Q.** And the “specificity for topoIIα over topoIIβ” value [8]?
**A.** ~ 50 fold

**Q.** And the “phosphorylation of H2AX (reporter of DNA damage)” value [9]?
**A.** did not induce the phosphorylation of H2AX

**Q.** And the IC50 [3]?
**A.** 17.1 ± 8.7 µM

**Q.** What about the IC50 [4] of the same molecule?
**A.** 12.6 ± 0.7 µM

**Q.** What about the “off-target activity (agonist and antagonist) on 47 proteins” value [10] of the same molecule?
**A.** no noteworthy activity

**Q.** And the “ability to increase enzyme-mediated DNA cleavage” value [11]?
**A.** no ability to increase levels of enzyme-mediated DNA cleavage

**Q.** What about the IC50 [12] of the same molecule?
**A.** ~100 µM

**Q.** And the IC50 [5]?
**A.** 8.1 ± 2.9 µM

**Q.** What about the brain penetration [13] of the same molecule?
**A.** able to reach the brain

**Q.** What about the DNA intercalation [14] of the same molecule?
**A.** did not show this behavior; also recorded: does not intercalate into DNA

**Q.** For `COc1cc([C@@H]2c3cc4c(cc3[C@@H](O[C@@H]3O[C@@H]5CO[C@@H](C)O[C@H]5[C@H](O)[C@H]3O)[C@H]3COC(=O)[C@H]23)OCO4)cc(OC)c1O` [Etoposide, etoposide, reference compound], which IC50 [2] is on record?
**A.** 8.9 ± 1.6 µM

**Q.** And the IC50 [3]?
**A.** 2.4 ± 2 µM

**Q.** And the IC50 [4]?
**A.** 0.5 ± 0.1 µM

**Q.** What about the IC50 [5] of the same molecule?
**A.** 3.8 ± 3 µM
